Reference: patent US20200093843A1, “COMPOUNDS FOR TREATMENT OF INTRACTABLE EPILEPSY AND DOORS SYNDROME” (VIB VZW, priority 2016, published 2020)
“Also recorded” adds a separate entry of the source. Each block holds one molecule with its values, some of them ahead of it.

Legend:
[1] = described in literature; listed as erufosine; cited from earlier work
[2] = biological target: T1, wild type Sky1-353 (TBC domain of Skywalker) (Drosophila melanogaster, UniProt Q9VIH7); test: Thermal shift assay, ligand binding to wild type Sky1-353
T1 construct: the TBC domain of Sky (Sky1-353) was expressed from the pET28a vector (Novagen) as an N-terminal His6-tag fusion; His6 (N); made in house; host or cells: E. coli C41 (DE3)
T1 sequence (Q9VIH7 1-353): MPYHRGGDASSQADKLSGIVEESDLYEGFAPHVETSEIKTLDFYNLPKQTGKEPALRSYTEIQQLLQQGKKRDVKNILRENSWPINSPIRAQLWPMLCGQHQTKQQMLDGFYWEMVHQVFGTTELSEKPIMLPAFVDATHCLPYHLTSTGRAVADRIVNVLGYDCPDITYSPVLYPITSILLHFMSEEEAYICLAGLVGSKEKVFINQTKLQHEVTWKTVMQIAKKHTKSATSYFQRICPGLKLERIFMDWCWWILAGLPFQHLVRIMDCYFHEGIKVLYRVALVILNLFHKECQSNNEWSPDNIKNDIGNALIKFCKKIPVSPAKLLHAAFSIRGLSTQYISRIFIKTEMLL
Experimental: (§1) Thermal unfolding was detected by following SYPRO orange fluorescence using a CFX connect Real-Time PCR System (BioRad). […] The temperature was increased from 20° C. to 80° C. at 0.5° C./30s steps. All measurements were done in triplicate.

Sky1-353 R79C mutant = biological target: T2, Sky1-353 R79C mutant (Drosophila melanogaster, UniProt Q9VIH7, R79C); test: Thermal shift assay, IP3 binding to Sky1-353 R79C
T2 construct: the TBC domain of Sky (Sky1-353) was expressed from the pET28a vector (Novagen) as an N-terminal His6-tag fusion; His6 (N); made in house; host or cells: E. coli C41 (DE3)
T2 sequence (Q9VIH7 1-353 R79C): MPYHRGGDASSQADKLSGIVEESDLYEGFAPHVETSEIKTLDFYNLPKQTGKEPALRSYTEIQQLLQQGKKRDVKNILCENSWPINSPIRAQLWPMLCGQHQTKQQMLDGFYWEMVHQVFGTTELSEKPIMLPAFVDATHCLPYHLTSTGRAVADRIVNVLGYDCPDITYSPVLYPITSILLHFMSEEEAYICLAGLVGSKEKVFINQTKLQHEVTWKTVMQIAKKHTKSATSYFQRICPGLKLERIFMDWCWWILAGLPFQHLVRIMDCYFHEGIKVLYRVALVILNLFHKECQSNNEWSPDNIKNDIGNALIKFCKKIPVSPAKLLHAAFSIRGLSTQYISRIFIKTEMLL
Experimental: (§2) The thermal stability of the R79C and R281C mutants in absence of ligands (Tm=32° C.) is somewhat lower compared to the wild type protein (Tm=34° C.) and the R335P mutant (Tm=35° C.). […] These experimental data moreover correspond with our structural data where R79 and R281 both form bifurcated electrostatic interactions with the phosphate on position 5, while R335 forms a single electrostatic interaction with the phosphate group on position 1 (FIG. 3e).
as §1

Sky1-353 R281C mutant = biological target: T3, Sky1-353 R281C mutant (Drosophila melanogaster, UniProt Q9VIH7, R281C); test: Thermal shift assay, IP3 binding to Sky1-353 R281C; settings: saturating amount of IP3, R281C mutant
T3 construct: the TBC domain of Sky (Sky1-353) was expressed from the pET28a vector (Novagen) as an N-terminal His6-tag fusion; His6 (N); made in house; host or cells: E. coli C41 (DE3)
T3 sequence (Q9VIH7 1-353 R281C): as the sequence (Q9VIH7 1-353 R79C) above, with C79R, R281C counted along it
Experimental: as §2, §1

Sky1-353 R335P mutant = biological target: T4, Sky1-353 R335P mutant (Drosophila melanogaster, UniProt Q9VIH7, R335P); test: Thermal shift assay, IP3 binding to Sky1-353 R335P
T4 construct: the TBC domain of Sky (Sky1-353) was expressed from the pET28a vector (Novagen) as an N-terminal His6-tag fusion; His6 (N); made in house; host or cells: E. coli C41 (DE3)
T4 sequence (Q9VIH7 1-353 R335P): as the sequence (Q9VIH7 1-353 R79C) above, with C79R, R335P counted along it
Experimental: as §2, §1

[3] = tested on: sky^1/2 mutants expressing Sky^R79C; test: Seizure assay in drug-fed flies; format: in vivo, Drosophila; settings: for rescue of seizure-like behaviour: versus mock-treated
Experimental: To assure that stimulation of PI(4,5)P2 levels in vivo can rescue the defects associated with the Skywalker cationic pocket mutants (Sky^R79C), a commercially available alkyl phospholipid compound, Miltefosine, with known impact on PI(4,5)P2 levels was tested for treatment of gender selected adult 4-7 day old sky^1/2 flies with cationic pocket mutations. For drug feeding, 10-20 flies per treatment vial were maintained in a 12 h light and dark cycle to maintain circadian rhythm, while the analysis was performed on 5 flies per vial for flight, after acclimatization to the test chamber, and 10 flies per vial for stimulation or behavioural challenge by vortexing. In total n=20 flies were analyzed per treatment as well as for the control flies reared on normal food (mock-treated). The effect of Miltefosine (Sigma, M5571) daily administered in dyed food at 50 μg/mL or at 100 μg/mL was tested over a feeding period of 2 and 8 days of drug exposure, after which animal behaviour was analyzed via flight and seizure assays.
Each data point represents averages of 10 animals tested over 8 days and analyzed per drug treatment as well as the control flies reared on normal food (mock-treated).
For drug treatment, a concentration range between […] was tested for daily administration. […] Treatments were performed and were tested over a feeding period of 2 and 8 days of drug exposure, after which animal behaviour was tested in flight and seizure assays.
Adult flies of the genotype sky^1/sky^2 (sky^1/2); nsyb-Gal4/UAS-Sky^R79C or genotypes as indicated, were raised at 21° C. on standard fly food, containing the indicated drugs (Miltefosine, Perifosine, Edelfosine, Erufosine) or on control food prepared without drugs. Animals were collected and gender selected 2 to 5 days after enclosure. On days 2 and 8 of incubation on drugs, flight assays were performed with groups of 5 gender-selected animals in each transparent vial. Following a tap to collect the animals at the bottom of the vial, behaviour was distinguished between walking, jumping and flight. Seizure assays were performed with groups of 10 gender-selected animals that were transferred into transparent vials and excited by vortexing once for 10 seconds in behaviour studies, or in a sequence (1 minute vortexing, 1 minute rest, 1 minute vortexing) for drug treatment studies. This test sequence was repeated following 5 minutes of rest. Active and fallen flies were quantified over the course of the following minute. To ensure natural behaviour animals were not anesthetized on the day of experiments or over the course of drug application.

[4] = biological target: T5, 5′-phosphatase domain of Synaptojanin-1 (Homo sapiens, UniProt O43426); test: Malachite Green phosphatase assay; format: biochemical; settings: 1 mM compound, 1% DMSO, 40 μM IP3 substrate, 1 h, background subtracted
T5 construct: made in house
T5 sequence (O43426 528-873): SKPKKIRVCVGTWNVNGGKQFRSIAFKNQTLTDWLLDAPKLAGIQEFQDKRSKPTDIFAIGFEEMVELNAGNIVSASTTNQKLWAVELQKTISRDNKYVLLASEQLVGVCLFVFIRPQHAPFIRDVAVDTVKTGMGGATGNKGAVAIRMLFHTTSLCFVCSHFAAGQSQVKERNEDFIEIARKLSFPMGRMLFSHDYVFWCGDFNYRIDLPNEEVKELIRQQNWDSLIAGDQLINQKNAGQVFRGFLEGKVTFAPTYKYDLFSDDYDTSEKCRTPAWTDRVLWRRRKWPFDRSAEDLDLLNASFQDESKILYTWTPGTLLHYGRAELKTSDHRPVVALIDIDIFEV
Description: First, an expression plasmid for the recombinant expression of the 5′-phosphatase domain of Synj1 (SEQ ID NO:1) was constructed. […] A commercially available assay in a 96-well plate format is the Malachite Green Phosphate Assay Kit (BioAssay Systems).
After assay optimization, the assay is used to measure inhibitory activity of known compounds as well as to further allow a high-throughput setup for compound screening.
The Malachite Green Phosphate Assay Kit (BioAssay Systems) is a discontinuous assay that measures the concentrations of enzymatically released phosphate after formation of a complex with malachite green and molybdate (absorbance is measured at 620 nm). […] As a read-out the Absorbance at 620 nm after 60 min incubation is measured and the background starting signal is subtracted. For inhibitory compound screening, 1 mM of the test compound dissolved in 1% DMSO was used.

wild type Sky1-353 = biological target: T6, wild type Sky1-353 (Drosophila melanogaster, UniProt Q9VIH7); test: Liposome flotation assay; format: binding; settings: for binding of Sky1-353 to liposomes: PC:PS liposomes enriched with 2% of the indicated phosphoinositide
T6 construct: the TBC domain of Sky (Sky1-353) was expressed from the pET28a vector (Novagen) as an N-terminal His6-tag fusion; His6 (N); made in house; host or cells: E. coli C41 (DE3)
T6 sequence (Q9VIH7 1-353): T1 sequence (Q9VIH7 1-353)
Description: TBC1D24 and Skywalker regulate vesicle trafficking, a process that requires membrane interactions^20,24,30. We therefore hypothesized that the positively charged pocket of Sky serves as a binding module to negatively charged membranes. We used a liposome flotation assay and mixed Sky1-353 with liposomes produced from Folch-extracted total brain lipids and centrifuged the sample in a sucrose gradient. After recovering six fractions from the top to the bottom of the centrifugation tube we find that Sky1-353 is present in the top fractions that contain the liposomes. […] A major class of lipids that regulates presynaptic activity are phosphoinositides^31. Lipid strip interaction experiments using Sky1-353 are indeed compatible with Sky interacting with phosphoinositides. We therefore resorted to liposome flotation assays using liposomes composed of phosphatidylcholine and phosphatidylserine and supplemented with different types of phosphoinositides (FIG. 3b). […] Moreover, the binding can be reversed by adding increasing concentrations of salt, as would be expected from binding that is mainly driven by electrostatic interactions.
Liposomes were prepared using either Folch brain total lipid extract or using a mix of phosphatidylcholine and phosphatidylserine (80:20 ratio) supplemented with 0.5%, 2% or 5% of a specific phosphoinositide as indicated. The liposomes were subsequently incubated with 6 μg of wild-type or mutant Sky1-353. PI(4,5)P2-Grip (Echelon Biosciences, Salt Lake City, USA) was used as a positive control. Subsequently, this mix was loaded on a sucrose cushion (30% sucrose layer, 25% sucrose layer and HP30 buffer layer) and centrifuged. Individual fractions from the top to the bottom were collected and assayed using Western blotting against His6 (Sky) or GST (PI(4,5)P2-Grip).

[5] = PI(4,5)P2 varied from 0% to 5% in liposomes

Molecule: CCCCCCCC/C=C\CCCCCCCCCCCCOP(=O)([O-])OCC[N+](C)(C)C [Erufosine]
blood-brain-barrier crossing [1]: known to allow BBB crossing

Molecule: O=P(O)(O)O[C@@H]1[C@H](O)[C@H](O)[C@@H](OP(=O)(O)O)[C@H](OP(=O)(O)O)[C@H]1O [IP3, inositol 1,4,5-trisphosphate]
Kd [2]: 19 ± 3 µM
Kd (Sky1-353 R79C mutant): 325 ± 200 µM
increase in thermal stability (Sky1-353 R79C mutant; saturating amount of IP3, R79C mutant): 4 °C
increase in thermal stability (Sky1-353 R281C mutant): 4 °C
Kd (Sky1-353 R335P mutant): 67 ± 17 µM
increase in thermal stability (Sky1-353 R335P mutant; saturating amount of IP3, R335P mutant): 8 °C

Molecule: CCCCCCCCCCCCCCCCOP(=O)([O-])OCC[N+](C)(C)C [Miltefosine]
rescue of seizure-like behaviour ([3]; 50 μg/mL in food, 2 days of drug feeding, p<0.001): highly significant; also recorded: significant rescue of seizure-like behaviour
rescue of seizure-like behaviour ([3]; 50 μg/mL in food, 8 days of drug feeding, p<0.1): lasted at least up to 8 days after treatment; also recorded: significant rescue of seizure-like behaviour
rescue of seizure-like behaviour ([3]; 100 μg/mL in food (probably toxic), 2 or 8 days): did not lead to significant difference
inhibition of 5′-phosphatase activity [4]: effective inhibitors; also recorded: complete inhibition

Molecule: CCCCCCCCCCCCCCCCCCOP(=O)([O-])OC1CC[N+](C)(C)CC1 [Perifosine]
effect on seizures ([3]; 1000 μg/mL daily in dyed food, up to 8 days): positive effect
inhibition of 5′-phosphatase activity [4]: effective inhibitors
inhibition of 5′-phosphatase activity ([4]; listed as Perisofine): complete inhibition

Further lines, results first:

binding of Sky1-353 to liposomes (wild type Sky1-353): does not bind
Molecule: PI(3)P

binding of Sky1-353 to liposomes (wild type Sky1-353): strongest binding
Molecule: PI(3,4,5)P3

binding of Sky1-353 to liposomes (wild type Sky1-353): weak but significant binding
Molecule: PI(4)P

binding of Sky1-353 to liposomes (wild type Sky1-353): weak but significant binding
Molecule: PI(5)P

binding of Sky1-353 to liposomes (wild type Sky1-353): strongest binding
PI(4,5)P2 concentration at which full binding is reached (wild type Sky1-353; [5]): 2%
lowest PI(4,5)P2 concentration at which binding is observed (wild type Sky1-353; [5]): 0.5%
Molecule: phosphatidylinositol 4,5-bisphosphate [PI(4,5)P2]

binding of Sky1-353 to liposomes (wild type Sky1-353): does not bind
Molecule: phosphatidylinositol [PI]
